Laboratory results reported in US4820694A, “Modifications of 3-O-demethylmycinose in macrocin and lactenocin” (priority 1986, dated 1989).
Values after ≈ are worked out from the molar mass of the structure shown. Like-named read-outs stand apart in the source and are kept apart here.

Columns and labels:
[1] = system: Streptococcus pneumoniae Park I; assay: microbe, parasite or virus in culture; assay type: cell-based; settings: Streptococcus pneumoniae
Experimental: (§1) The MIC's in Table III were determined by standard agar-dilution assays. The MIC's in Table IV were obtained using conventional brothdilution microtiter tests.

[2] = system: Staphylococcus aureus S13E; assay: microbe, parasite or virus in culture; assay type: cell-based; settings: Staphylococcus aureus, S13E
Experimental: as §1

[3] = system: Streptococcus Group D 9960; assay: standard agar-dilution MIC assay; assay type: cell-based; settings: GROUPD9960, read-out: MIC
Experimental: as §1

[4] = system: Pseudomonas aeruginosa X239; assay: standard agar-dilution MIC assay; assay type: cell-based; settings: Pseudomonas aeruginosa, X239; agar-dilution; read-out: MIC
Experimental: as §1

[5] = system: Staphylococcus aureus V41; assay: standard agar-dilution MIC assay; assay type: cell-based; settings: Staphylococcus aureus, V41
Experimental: as §1

[6] = system: Klebsiella pneumoniae X68; assay: standard agar-dilution MIC assay; assay type: cell-based; settings: Klebsiella pneumoniae, X68; agar-dilution; read-out: MIC
Experimental: as §1

[7] = system: Streptococcus pyogenes C203; assay: standard agar-dilution MIC assay; assay type: cell-based; settings: Streptococcus pyogenes, C203
Experimental: as §1

[8] = system: Staphylococcus epidermidis EPI1; assay: standard agar-dilution MIC assay; assay type: cell-based; settings: Staphylococcus epidermidis, EPI1
Experimental: as §1

[9] = system: Haemophilus influenzae C.L.; assay: standard agar-dilution MIC assay; assay type: cell-based; settings: Haemophilus influenzae
Experimental: as §1

[10] = system: Streptococcus Group D X66; assay: standard agar-dilution MIC assay; assay type: cell-based; settings: read-out: MIC
Experimental: as §1

[11] = system: Staphylococcus aureus X1.1; assay: standard agar-dilution MIC assay; assay type: cell-based; settings: Staphylococcus aureus, X1.1
Experimental: as §1

[12] = system: Haemophilus influenzae 76; assay: standard agar-dilution MIC assay; assay type: cell-based; settings: Haemophilus influenzae, 76
Experimental: as §1

Escherichia coli EC14 = assay: standard agar-dilution MIC assay; assay type: cell-based; settings: agar-dilution, read-out: MIC
Experimental: as §1

[13] = system: Staphylococcus aureus X400; assay: standard agar-dilution MIC assay; assay type: cell-based; settings: Staphylococcus aureus, X400
Experimental: as §1

[14] = system: Pasteurella hemolytica 41D; assay: broth-dilution microtiter MIC test; assay type: cell-based; settings: Pasteurella, 41D
Experimental: as §1

[15] = system: Pasteurella hemolytica 22C; assay: broth-dilution microtiter MIC test; assay type: cell-based; settings: Pasteurella, 22C
Experimental: as §1

[16] = system: Pasteurella multocida 60A; assay: broth-dilution microtiter MIC test; assay type: cell-based; settings: Pasteurella multocida, 60A
Experimental: as §1

[17] = system: Mycoplasma gallisepticum 15E; assay: broth-dilution microtiter MIC test; assay type: cell-based; settings: Mycoplasmoides gallisepticum, 15E
Experimental: as §1

[18] = system: Mycoplasma gallisepticum 36H; assay: broth-dilution microtiter MIC test; assay type: cell-based; settings: Mycoplasmoides gallisepticum, 36H
Experimental: as §1

Mycoplasma hyorhinis 29E = assay: broth-dilution microtiter MIC test; assay type: cell-based; settings: Mycoplasma, 29E
Experimental: as §1

[19] = system: Pasteurella multocida 68C; assay: broth-dilution microtiter MIC test; assay type: cell-based; settings: Pasteurella multocida, 68C
Experimental: as §1

[20] = system: Pasteurella multocida 22A; assay: broth-dilution microtiter MIC test; assay type: cell-based; settings: Pasteurella multocida, 22A
Experimental: as §1

[21] = system: Staphylococcus aureus 19C; assay: broth-dilution microtiter MIC test; assay type: cell-based; settings: Staphylococcus aureus, 19C
Experimental: as §1

Streptococcus sp. 19F = assay: broth-dilution microtiter MIC test; assay type: cell-based; settings: Streptococcus, SP.19F
Experimental: as §1

[22] = system: Pasteurella multocida 40G; assay: broth-dilution microtiter MIC test; assay type: cell-based; settings: Pasteurella multocida, 40G
Experimental: as §1

Mycoplasma synoviae 40A = assay: broth-dilution microtiter MIC test; assay type: cell-based; settings: Mycoplasmopsis synoviae, 40A
Experimental: as §1

[23] = system: Bordetella bronchiseptica; assay: broth-dilution microtiter MIC test; assay type: cell-based; settings: Bordetella bronchiseptica; broth-dilution microtiter; read-out: MIC
Experimental: as §1

[24] = system: Pasteurella multocida 17E; assay: broth-dilution microtiter MIC test; assay type: cell-based; settings: Pasteurella multocida, 17E
Experimental: as §1

[25] = system: Pasteurella hemolytica 23C; assay: broth-dilution microtiter MIC test; assay type: cell-based; settings: Pasteurella, 23C
Experimental: as §1

[26] = system: Mycoplasma gallisepticum 29C; assay: broth-dilution microtiter MIC test; assay type: cell-based; settings: Mycoplasmoides gallisepticum, 29C
Experimental: as §1

[27] = system: Streptococcus pyogenes C203; assay: protection of mice experimentally infected with S. pyogenes C203; assay type: in vivo; settings: mice, mg/kg × 2, doses given 1 and 4 hours postinfection, read-out: ED50
Experimental: The formula 1 compounds have shown in vivo antimicrobial activity against experimentally-induced infections in laboratory animals. When two doses of test compound were administered to mice experimentally infected with S. pyrogenes C203, the activity observed was measured as an ED50 value [effective dose in mg/kg to protect 50% of the test animals: see Warren Wick, et al., J. Bacteriol. 81, 233-235 (1961)].
^a mg/kg × 2; doses given 1 and 4 hours postinfection

Row | SMILES | MIC [2] | MIC [3] | MIC [4] | MIC [5] | MIC [6] | MIC [7] | MIC [8] | MIC [9] | MIC [10] | MIC [11] | MIC [12] | MIC (Escherichia coli EC14) | MIC [13] | MIC [14] | MIC [15] | MIC [16] | MIC [17] | MIC [18] | MIC (Mycoplasma hyorhinis 29E) | MIC [19] | other results
1 | CCC1OC(=O)CC(O)C(C)C(OC2OC(C)C(O)C(N(C)C)C2O)C(CC=O)CC(C)C(=O)C=CC(C)=CC1COC1OC(C)C(OC(=O)CC(C)C)C(O)C1OC (centres unmarked) [Compound 26, 4"-O-Isovaleryl-lactenocin] | 1 µg/mL (≈ 1.19 µM) | 1 µg/mL (≈ 1.19 µM) | > 128 µg/mL | 1 µg/mL (≈ 1.19 µM) | > 128 µg/mL | 0.5 µg/mL (≈ 0.594 µM) | 1 µg/mL (≈ 1.19 µM) | 8 µg/mL (≈ 9.5 µM) | 1 µg/mL (≈ 1.19 µM) | 1 µg/mL (≈ 1.19 µM) | 8 µg/mL (≈ 9.5 µM) | > 128 µg/mL | 2 µg/mL (≈ 2.38 µM) | 50 µg/mL (≈ 59.4 µM) | 50 µg/mL (≈ 59.4 µM) | 25 µg/mL (≈ 29.7 µM) | 50 µg/mL (≈ 59.4 µM) | 50 µg/mL (≈ 59.4 µM) | 1.56 µg/mL (≈ 1.85 µM) | 12.5 µg/mL (≈ 14.8 µM) | MIC [1]: 0.25 µg/mL (≈ 0.297 µM); MIC [20]: 25 µg/mL (≈ 29.7 µM); MIC [21]: 3.12 µg/mL (≈ 3.71 µM); MIC (Streptococcus sp. 19F): 1.56 µg/mL (≈ 1.85 µM); MIC [22]: 25 µg/mL (≈ 29.7 µM); MIC (Mycoplasma synoviae 40A): 3.12 µg/mL (≈ 3.71 µM); MIC [23]: > 50 µg/mL; MIC [24]: 25 µg/mL (≈ 29.7 µM); MIC [25]: 25 µg/mL (≈ 29.7 µM); MIC [26]: 1.56 µg/mL (≈ 1.85 µM); ED50 ([27]; C203, Oral): > 25 mg/kg; ED50 ([27]; C203, sc, Subcutaneous): 5.37 mg/kg
2 | CCC1OC(=O)CC(O)C(C)C(OC2OC(C)C(O)C(N(C)C)C2OC(C)=O)C(CC=O)CC(C)C(=O)C=CC(C)=CC1COC1OC(C)C(OC(C)=O)C(OC(=O)COc2ccccc2)C1OC (centres unmarked) [Compound 37, 2',4"-Di-O-acetyl-3"-O-phenoxyacetyllactenocin] | 1 µg/mL (≈ 1.02 µM) | 2 µg/mL (≈ 2.05 µM) | > 128 µg/mL | 1 µg/mL (≈ 1.02 µM) | > 128 µg/mL | 0.5 µg/mL (≈ 0.512 µM) | 1 µg/mL (≈ 1.02 µM) | 16 µg/mL (≈ 16.4 µM) | 1 µg/mL (≈ 1.02 µM) | 1 µg/mL (≈ 1.02 µM) | 4 µg/mL (≈ 4.1 µM) | > 128 µg/mL | 2 µg/mL (≈ 2.05 µM) | 25 µg/mL (≈ 25.6 µM) | 25 µg/mL (≈ 25.6 µM) | 25 µg/mL (≈ 25.6 µM) | 6.25 µg/mL (≈ 6.4 µM) | 12.5 µg/mL (≈ 12.8 µM) | 6.25 µg/mL (≈ 6.4 µM) | 12.5 µg/mL (≈ 12.8 µM) | MIC ([1]; agar-dilution, read-out: MIC): 0.12 µg/mL (≈ 0.123 µM); MIC [20]: 25 µg/mL (≈ 25.6 µM); MIC [21]: 1.56 µg/mL (≈ 1.6 µM); MIC (Streptococcus sp. 19F): 0.78 µg/mL (≈ 0.799 µM); MIC [22]: 25 µg/mL (≈ 25.6 µM); MIC (Mycoplasma synoviae 40A): 0.78 µg/mL (≈ 0.799 µM); MIC [23]: > 50 µg/mL; MIC [24]: 25 µg/mL (≈ 25.6 µM); MIC [25]: 25 µg/mL (≈ 25.6 µM); MIC [26]: 0.195 µg/mL (≈ 0.2 µM)
3 | CCC1OC(=O)CC(O)C(C)C(OC2OC(C)C(O)C(N(C)C)C2OC(C)=O)C(CC=O)CC(C)C(=O)C=CC(C)=CC1COC1OC(C)C(OC(=O)CC(C)C)C(O)C1OC (centres unmarked) [Compound 25, 2'-O-Acetyl-4"-O-isovaleryl-lactenocin] | 2 µg/mL (≈ 2.26 µM) | 2 µg/mL (≈ 2.26 µM) | > 128 µg/mL | 2 µg/mL (≈ 2.26 µM) | > 128 µg/mL | 2 µg/mL (≈ 2.26 µM) | 2 µg/mL (≈ 2.26 µM) | 32 µg/mL (≈ 36.2 µM) | 2 µg/mL (≈ 2.26 µM) | 2 µg/mL (≈ 2.26 µM) | 16 µg/mL (≈ 18.1 µM) | > 128 µg/mL | 2 µg/mL (≈ 2.26 µM) | 25 µg/mL (≈ 28.3 µM) | 50 µg/mL (≈ 56.6 µM) | 25 µg/mL (≈ 28.3 µM) | 50 µg/mL (≈ 56.6 µM) | 25 µg/mL (≈ 28.3 µM) | 1.56 µg/mL (≈ 1.76 µM) | 25 µg/mL (≈ 28.3 µM) | MIC [1]: 0.5 µg/mL (≈ 0.566 µM); MIC [20]: 25 µg/mL (≈ 28.3 µM); MIC [21]: 6.25 µg/mL (≈ 7.07 µM); MIC (Streptococcus sp. 19F): 1.56 µg/mL (≈ 1.76 µM); MIC [22]: 25 µg/mL (≈ 28.3 µM); MIC (Mycoplasma synoviae 40A): 3.12 µg/mL (≈ 3.53 µM); MIC [23]: > 50 µg/mL; MIC [24]: 25 µg/mL (≈ 28.3 µM); MIC [25]: 25 µg/mL (≈ 28.3 µM); MIC [26]: 0.39 µg/mL (≈ 0.441 µM)
